{"source": "paper PMC5556071", "about": "“ATR inhibition facilitates targeting of leukemia dependence on convergent nucleotide biosynthetic pathways” (Nature Communications, 2017)", "key": {"[1]": {"test_system": "CEM cells", "assay": "Targeted LC-MS/MS-MRM of de novo and salvage dCTP biosynthesis (nucleotide pools and newly replicated DNA)", "assay_type": "cell-based, human", "design": "key to Substrate utilization Glucose / Substrate utilization dC: ↓: partial decrease/inhibition; ↓↓↓: nearly complete inhibition; ↑: increase; ⟷: no change", "procedure": "Cells were transferred into RPMI-1640 without glucose and supplemented with 10% dialyzed FBS (Gibco) containing the following labeled substrates: precursors for de novo [U-^13C6]glucose (Sigma-Aldrich, 389374) at 11 mM; precursors for purine salvage [U-^13C10,^15N5]dA (Cambridge Isotopes, CIL 3896), [^15N5]dA (Cambridge Isotopes, NLM-3895) and [^15N5]dG (Cambridge Isotopes, NLM-3899) at 5 µM or as indicated; and precursors for pyrimidine salvage: [U-^13C9,^15N3]dC (Silantes, 124603602) and [U-^13C10,^15N2]dT (Cambridge Isotopes, CNLM-3902) at 5 µM and [^15N2]orotate (Cambridge Isotopes, NLM-1048) at indicated concentrations. The cells were incubated for 12 h or as indicated before sample collection and processing.\nThe rates of dCTP incorporation into the DNA were determined using linear regression with procedure GLM in SAS (v. 9.4). DNA % label was transformed using a shifted log addition of 1 due to the presence of zeros in the data set. Rates were calculated using the slope of the regression line for the log transformed data and are presented in the table with the associated standard errors, along with the ratio between the rate of incorporation into DNA by the de novo and salvage pathways (Table 1).\nCell cycle synchronization. Cells were treated with a CDK4/6 inhibitor, Pablociclib or PD-0332991 (Selleckchem, S1116) for 18 h to synchronize them in the G1 phase. Subsequently, cells were washed twice with PBS containing 2% FBS (Omega Scientific) and released into fresh media. […]\nClinical Microarray Core on an Illumina HiSeq3000 using the SeqCap EZ Exome Enrichment Kit v3.0 (Roche).\nReads were mapped to UCSC hg19 (bwa-mem), deduplicaed (PicardTools), and subjected to base quality score recalibration and realignment around known indels according to the Broad Institute Genome Analysis Toolkit (GATK) Best Practices v3.0. Variants in genes associated with nucleotide biosynthesis were identified using the GATK HaplotypeCaller, and annotated with Oncotator (http://portals.broadinstitute.org/oncotator/). dNTP sample processing. 0.5 – 1 x 10^6 cells were collected into 1.5 mL microcentrifuge tubes and centrifuged (450 x g, 4 min, 4 °C). The supernatant was carefully aspirated and the cells were washed twice with 1 mL of cold PBS, followed each time by centrifugation (450 x g, 4 min 4 °C). The PBS were aspirated.\nThereafter, the pellets were treated with 10 µL of 10% trifluoroacetic acid with internal standards (1 µM […]\ns, and incubated on ice for 10 min. 40 µL of 500 mM ammonium acetate, pH = 9.3, with the same internal standard (1 µM [15N3]dCMP and [15N3]dCTP) was then added and the samples were vigorously vortexed again for 30 s. The samples were centrifuged (14,000 x g, 10 min, 4 °C) to remove cell debris. The supernatants (~ 40 µL) were transferred into HPLC injector vials. Stock solutions (10 mM) of rCTP, rCDP, dCMP, dCDP, and dCTP (Sigma Aldrich) were prepared individually in water, and stored at –20 °C before use to generate calibration standards. Calibration standards were prepared and mixed together in water with internal standards (1 µM [15N3]dCMP and [15N3]dCTP) to make working stock concentrations in 100 nM – 100 µM range.\nCalibration standards were diluted 10-fold into the same nucleotide extraction solution of 10% TFA/500 mM ammonium acetate (1:4, v/v) with internal standards (1 µM [15N3]dCMP and [15N3]dCTP) to give a final concentration in 10 nM – 10 µM. Nucleotide and calibration samples were processed together to minimize […]\nDNA sample processing. Genomic DNA from 0.5 – 1 x 10^4 cells was extracted using the Quick-gDNA MiniPrep kit (Zymo Research, D3021) and hydrolyzed to nucleosides using the DNA Degradase Plus kit (Zymo Research, E2021), following manufacturer-supplied instructions. In the final step of DNA extraction, 50 µL of […]\nwater was used to elute the DNA into 1.5 mL microcentrifuge tubes. A nuclease solution (5 µL; 10X buffer/DNA Degradase Plus™/water, 2.5/1/1.5, v/v/v) was added to 20 µL of the eluted genomic DNA in an HPLC injector […]\nvial. […]"}, "[2]": {"test_system": "dasatinib-resistant p185BCR-ABL Arf–/– pre-B-ALL cells", "assay": "Apoptosis assay, Annexin V and PI staining", "assay_type": "cell-based, mouse", "details": "350 nM 3-AP, 100 nM VE-822, 1 µM dCKi, 72 h", "procedure": "(§1) Apoptosis and cell death were assayed using Annexin V-FITC and PI according to manufacturer’s instructions (FITC Annexin V Apoptosis Detection Kit, BD Sciences, #556570). […]\n(§2) Annexin V staining. Cells were treated with the indicated treatments for 24 or 72 h, then collected and washed twice with 1 mL of FACS buffer (2% FBS in PBS). Induction of apoptosis and cell death were assayed by staining the cells with Annexin V-FITC and PI according to manufacturer’s instructions (FITC Annexin V Apoptosis Detection Kit, BD Sciences, #556570).\n(§3) FACS analysis. All flow cytometry data were acquired on five-laser LSRII cytometers (BD) for analysis, and analyzed using FlowJo software (Tree Star). […]"}, "[3]": {"test_system": "CEM cells", "assay": "Apoptosis assay, Annexin V and PI staining", "assay_type": "cell-based, human", "details": "500 nM 3-AP, 1 µM VE-822, 1 µM dCKi, 24 h", "procedure": "as §1, §2, §3"}, "[4]": {"details": "CEM 12 h, 1 uM VE-822, 1 uM DI-82, 500 nM 3-AP, #1-#3"}, "[5]": {"details": "CEM after release from G1 arrest"}}, "note": "Where “and” joins values, the source holds several entries; their conditions need not be identical. Equal entries are not always repeated."}
{"smiles": "CNCc1ccc(-c2cc(-c3nc(-c4ccc(S(=O)(=O)C(C)C)cc4)cnc3N)on2)cc1", "note": "[VE-822]", "values": [{"measurement": "reduction in overall DNA labeling compared to untreated cells", "setting": "[1]; 12 h time point after release from G1 arrest", "value": 30, "unit": "%"}, {"measurement": "% sum abundance, de novo DNA-C, mass increase in nucleobase +0, in deoxyribose +3", "setting": "[1]; [4]", "value": "0.14% and 0.15% and 0.16%"}, {"measurement": "% sum abundance, de novo DNA-C, mass increase in nucleobase +0, in deoxyribose +4", "setting": "[1]; [4]", "value": "0.43% and 0.45% and 0.46%"}, {"measurement": "% sum abundance, de novo DNA-C, mass increase in nucleobase +0, in deoxyribose +5", "setting": "[1]; [4]", "value": "7.38% and 7.69% and 7.03%"}, {"measurement": "% sum abundance, de novo DNA-C, mass increase in nucleobase +1, in deoxyribose +3", "setting": "[1]; [4]", "value": 0.00, "unit": "%"}, {"measurement": "% sum abundance, de novo DNA-C, mass increase in nucleobase +1, in deoxyribose +4", "setting": "[1]; [4]", "value": "0.06% and 0.0569% and 0.066%"}, {"measurement": "% sum abundance, de novo DNA-C, mass increase in nucleobase +1, in deoxyribose +5", "setting": "[1]; [4]", "value": "0.95% and 0.96% and 0.91%"}, {"measurement": "% sum abundance, de novo DNA-C, mass increase in nucleobase +2, in deoxyribose +4", "setting": "[1]; [4]", "value": "0.0654% and 0.0348% and 0.0476%"}, {"measurement": "% sum abundance, de novo DNA-C, mass increase in nucleobase +2, in deoxyribose +5", "setting": "[1]; [4]", "value": "0.64% and 0.67% and 0.62%"}, {"measurement": "% sum abundance, de novo DNA-C, mass increase in nucleobase +3, in deoxyribose +4", "setting": "[1]; [4]", "value": 0.00, "unit": "%"}, {"measurement": "% sum abundance, de novo DNA-C, mass increase in nucleobase +3, in deoxyribose +5", "setting": "[1]; [4]", "value": "0.16% and 0.17% and 0.14%"}, {"measurement": "% sum abundance, de novo DNA-C, mass increase in nucleobase +4, in deoxyribose +4", "setting": "[1]; [4]", "value": 0.00, "unit": "%"}, {"measurement": "% sum abundance, de novo DNA-C, mass increase in nucleobase +4, in deoxyribose +5", "setting": "[1]; [4]", "value": 0.00, "unit": "%"}, {"measurement": "% sum abundance, salvage DNA-C, mass increase in nucleobase +5, in deoxyribose +0", "setting": "[1]; [4]", "value": 0.00, "unit": "%"}, {"measurement": "% sum abundance, salvage DNA-C, mass increase in nucleobase +5, in deoxyribose +4", "setting": "[1]; [4]", "value": 0.00, "unit": "%"}, {"measurement": "% sum abundance, salvage DNA-C, mass increase in nucleobase +5, in deoxyribose +5", "setting": "[1]; [4]", "value": 0.00, "unit": "%"}, {"measurement": "% sum abundance, salvage DNA-C, mass increase in nucleobase +6, in deoxyribose +0", "setting": "[1]; [4]", "value": 0.00, "unit": "%"}, {"measurement": "% sum abundance, salvage DNA-C, mass increase in nucleobase +6, in deoxyribose +4", "setting": "[1]; [4]", "value": 0.00, "unit": "%"}, {"measurement": "% sum abundance, salvage DNA-C, mass increase in nucleobase +6, in deoxyribose +5", "setting": "[1]; [4]", "value": 0.09, "unit": "%"}, {"measurement": "% sum abundance, salvage DNA-C, mass increase in nucleobase +7, in deoxyribose +0", "setting": "[1]; [4]", "value": 0.00, "unit": "%"}, {"measurement": "% sum abundance, salvage DNA-C, mass increase in nucleobase +7, in deoxyribose +4", "setting": "[1]; [4]", "value": "0.06% and 0.07%"}, {"measurement": "% sum abundance, salvage DNA-C, mass increase in nucleobase +7, in deoxyribose +5", "setting": "[1]; [4]", "value": "1.08% and 1.19% and 1.11%"}, {"measurement": "% sum abundance, unlabeled DNA-C, mass increase in nucleobase +0, in deoxyribose +0", "setting": "[1]; [4]", "value": "78.84% and 78.52% and 79.31%"}, {"measurement": "% sum abundance, unlabeled DNA-C, mass increase in nucleobase +0, in deoxyribose +1", "setting": "[1]; [4]", "value": "4.53% and 4.48% and 4.46%"}, {"measurement": "% sum abundance, unlabeled DNA-C, mass increase in nucleobase +0, in deoxyribose +2", "setting": "[1]; [4]", "value": "0.68% and 0.72%"}, {"measurement": "% sum abundance, unlabeled DNA-C, mass increase in nucleobase +1, in deoxyribose +0", "setting": "[1]; [4]", "value": "4.47% and 4.26% and 4.33%"}, {"measurement": "% sum abundance, unlabeled DNA-C, mass increase in nucleobase +1, in deoxyribose +1", "setting": "[1]; [4]", "value": "0.21% and 0.22% and 0.24%"}, {"measurement": "% sum abundance, unlabeled DNA-C, mass increase in nucleobase +1, in deoxyribose +2", "setting": "[1]; [4]", "value": 0.00, "unit": "%"}, {"measurement": "% sum abundance, unlabeled DNA-C, mass increase in nucleobase +2, in deoxyribose +0", "setting": "[1]; [4]", "value": "0.24% and 0.27% and 0.28%"}, {"measurement": "% sum abundance, unlabeled DNA-C, mass increase in nucleobase +2, in deoxyribose +1", "setting": "[1]; [4]", "value": 0.00, "unit": "%"}, {"measurement": "% sum abundance, unlabeled DNA-C, mass increase in nucleobase +2, in deoxyribose +2", "setting": "[1]; [4]", "value": 0.00, "unit": "%"}, {"measurement": "% sum abundance, unlabeled DNA-C, mass increase in nucleobase +3, in deoxyribose +0", "setting": "[1]; [4]", "value": 0.00, "unit": "%"}, {"measurement": "% sum abundance, unlabeled DNA-C, mass increase in nucleobase +3, in deoxyribose +1", "setting": "[1]; [4]", "value": 0.00, "unit": "%"}, {"measurement": "% sum abundance, unlabeled DNA-C, mass increase in nucleobase +4, in deoxyribose +0", "setting": "[1]; [4]", "value": 0.00, "unit": "%"}, {"measurement": "De novo: rate of dCTP incorporation into newly replicated DNA (slope ± standard error of regression line)", "setting": "[1]; [5]", "value": "0.17 ± 0.01", "unit": "arbitrary unit"}, {"measurement": "Ratio (salvage/de novo)", "setting": "[1]; [5]", "value": 0.85}, {"measurement": "Salvage: rate of dCTP incorporation into newly replicated DNA (slope ± standard error of regression line)", "setting": "[1]; [5]", "value": "0.14 ± 0.01", "unit": "arbitrary unit"}, {"measurement": "free dCTP levels or their biosynthetic origins", "setting": "[1]; after release from G1 arrest", "value": "did not alter"}, {"measurement": "decrease of [13C6]glucose labeling of the rCDP pool", "setting": "[1]; asynchronous CEM, 12 h", "value": 40, "unit": "%"}, {"measurement": "reduction of dCK activity (contribution of labeled [13C9,15N3]dC to intracellular dCMP)", "setting": "[1]; asynchronous CEM, 12 h", "value": "~ 33%"}, {"measurement": "Substrate utilization Glucose", "setting": "[1]; summary Fig. 2g, CEM cells", "value": "↓"}, {"measurement": "Substrate utilization dC", "setting": "[1]; summary Fig. 2g, CEM cells", "value": "↓"}, {"measurement": "Annexin V+ cells (apoptosis induction)", "setting": "[2]; cells harvested from bone marrow of a treated leukemic mouse", "value": 12.9, "unit": "%"}, {"measurement": "Annexin V+ cells (apoptosis induction)", "setting": "[2]; cells prior to inoculation in mice", "value": 20.7, "unit": "%"}, {"measurement": "Annexin V+ cells (apoptosis induction)", "setting": "[3]", "value": 10.3, "unit": "%"}]}
